Common to all, as to format: functional
Test [1] concerns Mycobacterium tuberculosis. Briefly: Antimycobacterial activity against multidrug-resistant Mycobacterium tuberculosis clinical isolates by broth dilution method.
Test [2] concerns Mycobacterium tuberculosis. Put plainly: Antimycobacterial activity against isoniazid-resistant Mycobacterium tuberculosis clinical isolates by broth dilution method. (In general: Broth dilution looks for growth in wells or tubes with falling amounts of substance.)
Test [3] relates to Mycobacterium tuberculosis. Put plainly: Antimycobacterial activity against rifampicin-resistant Mycobacterium tuberculosis clinical isolates by broth dilution method.

Values after ≈ are worked out from the molar mass of the structure shown. A value given as a limit tells only on which side of the number the result lay.

In the case of `C[C@@H](NC(=O)c1cc([N+](=O)[O-])cc([N+](=O)[O-])c1)c1ccccc1`, the MIC in test [1] was 12.7 µM (≈ 4 µg/mL); in test [2], 0.79 µM (≈ 0.249 µg/mL); in test [3] it was less than 0.047 µM.
Take `O=C(NCCc1ccccc1)c1cc([N+](=O)[O-])cc([N+](=O)[O-])c1`: the MIC was greater than 12.7 µM in test [1], 0.795 µM (≈ 0.251 µg/mL) in test [2] and less than 0.19 µM in test [3].
`O=C(Nc1ccc(F)cc1)c1cc([N+](=O)[O-])cc([N+](=O)[O-])c1`: the minimal inhibitory concentration (MIC) in test [3] was 13 µM (≈ 3.98 µg/mL).
On to `O=C(Nc1ccccc1F)c1cc([N+](=O)[O-])cc([N+](=O)[O-])c1`, for which, in test [3], the MIC amounted to 13 µM (≈ 3.98 µg/mL).
The same measure, in the same setting: for `O=C(Nc1cc(Cl)cc(Cl)c1)c1cc([N+](=O)[O-])cc([N+](=O)[O-])c1` the value was 45.1 µM (≈ 16.1 µg/mL); for `N#Cc1ccccc1NC(=O)c1cc([N+](=O)[O-])cc([N+](=O)[O-])c1`, 3.2 µM (≈ 0.999 µg/mL).
On the same count and under the same terms, for `COc1ccc(CCNC(=O)c2cc([N+](=O)[O-])cc([N+](=O)[O-])c2)cc1` the value was less than 0.17 µM; for `CCCCC(CC)CNC(=O)c1cc([N+](=O)[O-])cc([N+](=O)[O-])c1` (stereo not drawn), less than 0.19 µM.
In the case of `O=C(NC1CCCC1)c1cc([N+](=O)[O-])cc([N+](=O)[O-])c1`, the MIC in test [3] turned out to be 0.9 µM (≈ 0.251 µg/mL).
On the same count and under the same terms, for `Cc1c([N+](=O)[O-])cc(C(=O)NCc2ccccc2)cc1[N+](=O)[O-]` the value was 3.17 µM (≈ 0.999 µg/mL).
For the compound `Cc1ccc([C@@H](C)NC(=O)c2cc([N+](=O)[O-])c(C)c([N+](=O)[O-])c2)cc1`, the MIC is 0.35 µM (≈ 0.12 µg/mL) in test [1], 0.35 µM (≈ 0.12 µg/mL) in test [2] and less than 0.04 µM in test [3].
Regarding `Cc1c([N+](=O)[O-])cc(C(=O)N[C@H](C)c2ccc(F)cc2)cc1[N+](=O)[O-]`, the MIC in test [1] stood at 5.76 µM (≈ 2 µg/mL); in test [2], 11.5 µM (≈ 4 µg/mL); in test [3] it was 11.5 µM (≈ 4 µg/mL).
On to `Cc1c([N+](=O)[O-])cc(C(=O)N[C@@H](C)c2ccc(F)cc2)cc1[N+](=O)[O-]`, for which the values for the minimum inhibitory concentration (MIC) in test [1], in test [2] and in test [3] were 0.72 µM (≈ 0.25 µg/mL), 0.72 µM (≈ 0.25 µg/mL) and less than 0.04 µM, respectively.
Turning to `Cc1ccc([C@@H](C)NC(=O)c2cc([N+](=O)[O-])cc([N+](=O)[O-])c2)cc1`, the MIC in test [1] is 12.2 µM (≈ 4 µg/mL); in test [2] it was less than 0.05 µM; in test [3], less than 0.05 µM.
The compound `CC(C)c1ccc(NC(=O)c2cc([N+](=O)[O-])cc([N+](=O)[O-])c2)cc1` had an MIC in test [3] of 48.6 µM (≈ 16 µg/mL).
Same read-out and setting: for `Cc1ccc(C(C)NC(=O)c2cc([N+](=O)[O-])c(C)c([N+](=O)[O-])c2)cc1` (racemic) the value was less than 0.17 µM.
For `CC[C@@H](CO)NCCN[C@@H](CC)CO` [ETHAMBUTOL], in test [1], the MIC was 16 µM (≈ 3.27 µg/mL).
For the compound `NNC(=O)c1ccncc1` [ISONIAZID], the MIC came out at 16 µM (≈ 2.19 µg/mL) in test [1] and 64 µM (≈ 8.78 µg/mL) in test [2].
Consider `CO[C@H]1/C=C/O[C@@]2(C)Oc3c(C)c(O)c4c(O)c(c(/C=N/N5CCN(C)CC5)c(O)c4c3C2=O)NC(=O)/C(C)=C\C=C\[C@H](C)[C@H](O)[C@@H](C)[C@@H](O)[C@@H](C)[C@H](OC(C)=O)[C@@H]1C` [RIFAMPIN], for which the MIC in test [1] is 64 µM (≈ 52.7 µg/mL); in test [3], 256 µM (≈ 211 µg/mL).

The MIC is the lowest concentration that inhibits growth of the organism.

Source of the values: ChEMBL document CHEMBL3132797, “Synthesis and biological evaluation of substituted N-alkylphenyl-3,5-dinitrobenzamide analogs as anti-TB agents” (Medchemcomm, 2014).
